Reference: article PMC3676432 (Journal of neurochemistry, 2013)

Experiments:
Type in all cases: cell-based
[1] = target: wild-type mouse muscle nAChR (αC192S-C193S background) (Mus musculus, UniProt P02716+P04756+P04760, C212S/C213S); assay: Effect of reducing/oxidizing reagents on ACh-induced current amplitude; details: DTT 10 mM, 2 min, ACh EC20–50
[2] = target: mouse muscle nAChR αT254C (Mus musculus, UniProt P02716+P04756+P04760, C212S/C213S/T274C); assay: as above; details: DTT 10 mM, 2 min; T254C; ACh EC20–50
Chain of mouse muscle nAChR αT254C (P04756 21-457 C212S/C213S/T274C): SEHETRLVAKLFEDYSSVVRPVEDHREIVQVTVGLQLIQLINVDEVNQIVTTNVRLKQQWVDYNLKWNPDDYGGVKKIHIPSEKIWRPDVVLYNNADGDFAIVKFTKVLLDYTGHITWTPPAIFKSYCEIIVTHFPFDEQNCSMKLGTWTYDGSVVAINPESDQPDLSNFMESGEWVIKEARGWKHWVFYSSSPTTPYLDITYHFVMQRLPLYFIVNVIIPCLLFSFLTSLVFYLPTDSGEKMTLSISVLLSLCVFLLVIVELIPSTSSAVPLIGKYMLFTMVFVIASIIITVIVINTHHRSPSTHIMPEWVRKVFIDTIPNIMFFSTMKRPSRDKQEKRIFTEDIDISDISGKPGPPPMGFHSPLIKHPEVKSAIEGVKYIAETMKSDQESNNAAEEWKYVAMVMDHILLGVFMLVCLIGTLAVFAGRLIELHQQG
Chain of mouse muscle nAChR αT254C (P09690 24-501 partner): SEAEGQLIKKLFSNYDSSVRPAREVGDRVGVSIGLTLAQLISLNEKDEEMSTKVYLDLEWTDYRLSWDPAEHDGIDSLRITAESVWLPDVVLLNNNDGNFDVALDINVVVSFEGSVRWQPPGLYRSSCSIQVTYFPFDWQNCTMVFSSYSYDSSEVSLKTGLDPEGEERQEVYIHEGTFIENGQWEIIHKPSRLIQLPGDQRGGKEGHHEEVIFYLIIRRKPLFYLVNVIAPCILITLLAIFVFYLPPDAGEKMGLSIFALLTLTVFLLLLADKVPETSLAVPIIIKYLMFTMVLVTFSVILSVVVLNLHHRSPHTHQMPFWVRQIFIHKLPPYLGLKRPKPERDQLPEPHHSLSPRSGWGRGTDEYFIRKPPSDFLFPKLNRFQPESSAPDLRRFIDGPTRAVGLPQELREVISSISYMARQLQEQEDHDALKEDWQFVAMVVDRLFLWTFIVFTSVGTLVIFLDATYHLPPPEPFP
Chain of mouse muscle nAChR αT254C (P04760 23-519): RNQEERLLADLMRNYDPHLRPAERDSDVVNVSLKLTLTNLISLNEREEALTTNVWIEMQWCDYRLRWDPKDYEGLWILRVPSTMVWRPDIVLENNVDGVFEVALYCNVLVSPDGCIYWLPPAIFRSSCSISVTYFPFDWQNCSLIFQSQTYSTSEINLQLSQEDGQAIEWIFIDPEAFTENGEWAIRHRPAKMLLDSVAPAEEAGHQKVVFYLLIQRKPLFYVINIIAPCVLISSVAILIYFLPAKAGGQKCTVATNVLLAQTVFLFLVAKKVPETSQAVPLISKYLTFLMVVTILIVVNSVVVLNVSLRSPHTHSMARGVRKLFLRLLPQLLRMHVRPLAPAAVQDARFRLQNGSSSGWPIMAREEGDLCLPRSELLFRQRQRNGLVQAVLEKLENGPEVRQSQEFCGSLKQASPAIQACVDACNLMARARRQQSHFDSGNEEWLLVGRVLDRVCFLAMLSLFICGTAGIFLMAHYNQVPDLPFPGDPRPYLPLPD
Chain of mouse muscle nAChR αT254C (P02716 25-520): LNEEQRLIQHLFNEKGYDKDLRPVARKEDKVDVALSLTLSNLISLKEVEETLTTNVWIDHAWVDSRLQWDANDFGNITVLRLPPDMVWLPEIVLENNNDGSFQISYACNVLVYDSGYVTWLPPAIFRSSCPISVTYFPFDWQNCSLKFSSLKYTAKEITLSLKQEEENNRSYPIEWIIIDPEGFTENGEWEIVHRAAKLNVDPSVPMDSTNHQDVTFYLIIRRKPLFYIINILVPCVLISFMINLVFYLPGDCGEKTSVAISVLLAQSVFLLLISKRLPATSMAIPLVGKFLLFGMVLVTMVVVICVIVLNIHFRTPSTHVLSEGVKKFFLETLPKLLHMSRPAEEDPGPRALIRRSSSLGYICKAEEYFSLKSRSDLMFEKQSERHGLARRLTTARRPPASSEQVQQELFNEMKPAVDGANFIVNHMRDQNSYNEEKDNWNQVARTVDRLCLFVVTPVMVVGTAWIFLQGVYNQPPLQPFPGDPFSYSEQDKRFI

[3] = target: mouse muscle nAChR αT254C+M278C (Mus musculus, UniProt P02716+P04756+P04760, C212S/C213S/M298C/T274C); details: 2 min
Chain of mouse muscle nAChR αT254C+M278C (P04756 21-457 C212S/C213S/T274C/M298C): as the sequence (P04756 21-457 C212S/C213S/T274C) above, with M278C counted along it
Chain of mouse muscle nAChR αT254C+M278C (P09690 24-501 partner): as the sequence (P09690 24-501 partner) above
Chain of mouse muscle nAChR αT254C+M278C (P04760 23-519): as the sequence (P04760 23-519) above
Chain of mouse muscle nAChR αT254C+M278C (P02716 25-520): as the sequence (P02716 25-520) above

[4] = target: mouse muscle nAChR αT254C+L279C (Mus musculus, UniProt P02716+P04756+P04760, C212S/C213S/L299C/T274C); details: 2 min
Chain of mouse muscle nAChR αT254C+L279C (P04756 21-457 C212S/C213S/T274C/L299C): as the sequence (P04756 21-457 C212S/C213S/T274C) above, with L279C counted along it
Chain of mouse muscle nAChR αT254C+L279C (P09690 24-501 partner): as the sequence (P09690 24-501 partner) above
Chain of mouse muscle nAChR αT254C+L279C (P04760 23-519): as the sequence (P04760 23-519) above
Chain of mouse muscle nAChR αT254C+L279C (P02716 25-520): as the sequence (P02716 25-520) above

[5] = second DTT 10 mM, after Cu:Phen and EGTA

Chain of wild-type mouse muscle nAChR (αC192S-C193S background) (P04756 21-457 C212S/C213S): as the sequence (P04756 21-457 C212S/C213S/T274C) above, with C254T counted along it
Chain of wild-type mouse muscle nAChR (αC192S-C193S background) (P09690 24-501 partner): as the sequence (P09690 24-501 partner) above
Chain of wild-type mouse muscle nAChR (αC192S-C193S background) (P04760 23-519): as the sequence (P04760 23-519) above
Chain of wild-type mouse muscle nAChR (αC192S-C193S background) (P02716 25-520): as the sequence (P02716 25-520) above

| ACh-induced current amplitude after DTT compared to initial current [1] | ACh-induced current amplitude after DTT compared to initial current [2] | increase of current amplitudes by DTT after Cu:Phen [3, 5] [%] | decrease of current amplitudes by DTT after Cu:Phen [4, 5] [%] | SMILES | EGTA effect on ACh-induced current amplitudes ([3]; EGTA 2 mM, after Cu:Phen) [%] | EGTA effect on ACh-induced current amplitudes ([4]; EGTA 2 mM, after Cu:Phen) [%] |
| --- | --- | --- | --- | --- | --- | --- |
| not significantly altered | not significantly altered | 29 ± 1 | 47 ± 11 | O[C@@H](CS)[C@@H](O)CS (racemic) [DTT, Dithiothreitol] |  |  |
|  |  |  |  | O=C(O)CN(CCOCCOCCN(CC(=O)O)CC(=O)O)CC(=O)O [EGTA, Ethylene glycol tetraacetic acid] | 1 ± 2 | −9 ± 3 |
